Measurements published in PubChem BioAssay AID1963979 (Molecular Pharmacology Branch, DTP, NCI, 2024).
pIC50: −log10 of the molar value.

Tested on: 361931-004-R-J1-PDC multicell spheroid viability
Test: Anticancer human tumor 361931-004-R-J1-PDC patient-derived colon adenocarcinoma cell line growth inhibition [PI3K]
Conditions: for pIC50: curve of first compound; for viability, T/C: stronger effect = lower value
Outline: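 Combination activity was assessed by viability in multicellular tumor spheroids carrying HUVEC and MSC components. Agents were tested with PI3K inhibitors from a Cmax-based top dose (or 10 microM) downward in half-log increments.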
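Also: spheroids exposed to agents for seven days before readout.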

pIC50 (second compound 0.0316 µM): 5.35
pIC50 (second compound 0.1 µM): 5.43
pIC50 (second compound 0.316 µM): 5.37
pIC50 (second compound 1 µM): 5.36
pIC50 (second compound 3.16 µM): 5.57
pIC50 (second compound 10 µM): > 7.50
SMILES: CC1(C)CCC(Nc2ncc(C(F)(F)F)c(-c3c[nH]c4c(P(C)(C)=O)c(C#N)ccc34)n2)CN1 (configuration not stated) + Cc1nc(NC(=O)N2CCCC2C(N)=O)sc1-c1ccnc(C(C)(C)C(F)(F)F)c1
viability, T/C (second compound 0.0316 µM, first compound 0.0316 µM): 97.1%
viability, T/C (second compound 0.0316 µM, first compound 0.1 µM): 82.6%
viability, T/C (second compound 0.0316 µM, first compound 0.316 µM): 79.9%
viability, T/C (second compound 0.0316 µM, first compound 1 µM): 79.9%
viability, T/C (second compound 0.0316 µM, first compound 3.16 µM): 71.3%
viability, T/C (second compound 0.0316 µM, first compound 10 µM): 5.89%
viability, T/C (second compound 0.1 µM, first compound 0.0316 µM): 101%
viability, T/C (second compound 0.1 µM, first compound 0.1 µM): 92.8%
viability, T/C (second compound 0.1 µM, first compound 0.316 µM): 84.9%
viability, T/C (second compound 0.1 µM, first compound 1 µM): 78.5%
viability, T/C (second compound 0.1 µM, first compound 3.16 µM): 59.7%
viability, T/C (second compound 0.1 µM, first compound 10 µM): 7.04%
viability, T/C (second compound 0.316 µM, first compound 0.0316 µM): 89.8%
viability, T/C (second compound 0.316 µM, first compound 0.1 µM): 84.4%
viability, T/C (second compound 0.316 µM, first compound 0.316 µM): 74.8%
viability, T/C (second compound 0.316 µM, first compound 1 µM): 70.6%
viability, T/C (second compound 0.316 µM, first compound 3.16 µM): 69.1%
viability, T/C (second compound 0.316 µM, first compound 10 µM): 5.97%
viability, T/C (second compound 1 µM, first compound 0.0316 µM): 76.5%
viability, T/C (second compound 1 µM, first compound 0.1 µM): 68.6%
viability, T/C (second compound 1 µM, first compound 0.316 µM): 65.2%
viability, T/C (second compound 1 µM, first compound 1 µM): 80.4%
viability, T/C (second compound 1 µM, first compound 3.16 µM): 65.8%
viability, T/C (second compound 1 µM, first compound 10 µM): 6.15%
viability, T/C (second compound 3.16 µM, first compound 0.0316 µM): 73.5%
viability, T/C (second compound 3.16 µM, first compound 0.1 µM): 62.5%
viability, T/C (second compound 3.16 µM, first compound 0.316 µM): 59.5%
viability, T/C (second compound 3.16 µM, first compound 1 µM): 57.5%
viability, T/C (second compound 3.16 µM, first compound 3.16 µM): 51.4%
viability, T/C (second compound 3.16 µM, first compound 10 µM): 4.43%
viability, T/C (second compound 10 µM, first compound 0.0316 µM): 49.1%
viability, T/C (second compound 10 µM, first compound 0.1 µM): 51.9%
viability, T/C (second compound 10 µM, first compound 0.316 µM): 44.9%
viability, T/C (second compound 10 µM, first compound 1 µM): 44.1%
viability, T/C (second compound 10 µM, first compound 3.16 µM): 39.5%
viability, T/C (second compound 10 µM, first compound 10 µM): 1.98%
